Assay [1] concerns differentiated L6-myotubes. The experiment in a line: Glucose uptake screen (Biological example 1 of WO 2019/053427). Particulars: compound at 10 μM, activity relative to isoproterenol at 10 μM, read-out: Biological example 1 of WO 2019/053427 (GU). The assay is classed as cell-based. Put shortly:
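Rat L6 myoblasts were differentiated into myotubes over 7 days in 2% FBS, then serum-starved overnight. Cells were stimulated with 1×10^−5 M compound plus β2 antagonist ICI-118551 for 1 h 40 min and re-dosed for 20 min in glucose-free medium. Uptake of 50 nM ^3H-2-deoxyglucose over 10 min was counted after NaOH lysis.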

Assay [2] relates to differentiated L6-myotubes. The experiment in a line: cAMP production relative to isoprenaline (Biological example 2 of WO 2019/053427). The conditions noted are these: 0.25 h, compound at 10 μM, activity relative to isoproterenol at 10 μM. Type of assay: cell-based. An outline of the steps:
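Differentiated L6 myotubes stimulated 15 min with test compound or isoprenaline, each at final 1×10^−5 M, in HBSS with 1% BSA, 5 mM HEPES, 1 mM IBMX, pH 7.4. cAMP production by the compound expressed relative to that induced by the same concentration of isoprenaline.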
(In general: Cyclic AMP is a second messenger, typically raised through Gs and lowered through Gi signalling.)

Structures are written as SMILES. Bounds are passed on as bounds.

On to `CCC[C@@H]1CCC[C@H]([C@H](O)c2ccccc2F)N1` [Compound 97, (R)-[(2R,6R)-6-propyl-2-piperidyl](o-fluorophenyl)methanol], for which the Emax at 10 µM in assay [1] was 50 to 75%; in assay [2], < 25%.

In the case of `CO[C@H]1CC[C@@H](CCC(C)(C)NC[C@H](O)c2cncc(F)c2)CC1` [Compound 266], the Emax at 10 µM was > 75% in assay [1] and < 25% in assay [2].

As to `CO[C@@H]1CCC[C@H](C(C)(C)NC[C@H](O)c2cccc(F)c2)C1` [Compound 255, (R)-2-{1-[(1S,3R)-3-methoxycyclohexyl]-1-methylethylamino}-1-(m-fluorophenyl)-1-ethanol], the Emax at 10 µM in assay [1] is > 75%; in assay [2], < 25%.

Consider `CCC[C@H]1CC[C@@H]([C@H](O)c2cccc(F)c2)N1` [Compound 130], for which the Emax at 10 µM in assay [1] was 25 to 50%; in assay [2], < 25%.

For the molecule `CO[C@@H]1CCC[C@H](C(C)(C)NC[C@H](O)c2cncc(F)c2)C1` [Compound 257, (R)-2-{1-[(1S,3R)-3-methoxycyclohexyl]-1-methylethylamino}-1-(5-fluoro-3-pyridyl)-1-ethanol], the Emax at 10 µM in assay [1] is 50 to 75%; in assay [2] it was < 25%.

Take `CC(C)(C)NC[C@H](O)c1ncccc1Cl` [Compound 146, (S)-2-(tert-butylamino)-1-(3-chloro-2-pyridyl)-1-ethanol]: the Emax at 10 µM in assay [1] is 25 to 50%; in assay [2] it was < 25%.

For `CC1(C)CC[C@H]([C@@H](O)c2ccc(F)cc2)N1` [Compound 172, (S)-[(R)-5,5-dimethyl-2-pyrrolidinyl](p-fluorophenyl)methanol], the Emax at 10 µM in assay [1] and in assay [2] was < 25% each time.

In the case of `CO[C@H]1CC[C@H](CNC[C@H](O)c2cccc(F)c2)CC1` [Compound 228, (R)-1-(m-fluorophenyl)-2-({[(1r,4R)-4-methoxycyclohexyl]meth-yl}amino)-1-ethanol], the values for the Emax at 10 µM in assay [1] and in assay [2] were 50 to 75% and < 25%, respectively.

As to `O[C@H](c1cccc(F)c1)C12CCC(COc3ccc(Cl)cc3)(CC1)N2` [Compound 441, (R)-{4-[(p-chlorophenoxy)methyl]-7-azabicyclo[2.2.1]hept-1-yl}(m-fluorophenyl)methanol], the Emax at 10 µM is > 75% in assay [1] and < 25% in assay [2].

As for `CCC[C@@H]1CCC[C@H]([C@H](O)c2ccc(F)cc2)N1` [Compound 94, (R)-[(2R,6R)-6-propyl-2-piperidyl](p-fluorophenyl)methanol], the Emax at 10 µM in assay [1] was 50 to 75%; in assay [2], < 25%.

Turning to `CC(=O)N[C@H]1CC[C@@H](CC(C)(C)NC[C@H](O)c2cccc(C(F)(F)F)n2)CC1` [Compound 462, N-[(1R,4s)-4-(2-{(S)-2-hydroxy-2-[6-(trifluoromethyl)-2-pyridyl]ethylamino}-2-methylpropyl)cyclohexyl]acetamide], the Emax at 10 µM in assay [1] was 25 to 50%; in assay [2] it was < 25%.

Take `CCC[C@H]1CCC[C@H]([C@@H](O)c2cccc(O)c2)N1` [Compound 155, (S)-[(2R,6S)-6-propyl-2-piperidyl](m-hydroxyphenyl)methanol]: the Emax at 10 µM in assay [1] and in assay [2] was < 25% each time.

For the molecule `CC1(C)CCC[C@@H]([C@@H](O)c2cccc(F)c2)N1` [Compound 191, (S)-[(S)-6,6-dimethyl-2-piperidyl](m-fluorophenyl)methanol], the Emax at 10 µM in assay [1] is 25 to 50%; in assay [2], < 25%.

As to `CCCCNC[C@H](O)c1cnc(N)nc1` [Compound 89, (R)-1-(2-amino-5-pyrimidinyl)-2-(butylamino)-1-ethanol], the results for the Emax at 10 µM in assay [1] and in assay [2] were 50 to 75% and < 25%, respectively.

On to `CC12CC(C1)[C@H]([C@@H](O)c1cccc(N)c1F)N2` [Compound 243, (S)-{(R)-1-methyl-2-azabicyclo[2.1.1]hex-3-yl}(3-amino-2-fluorophenyl)methanol], for which the figures for the Emax at 10 µM in assay [1] and in assay [2] were 50 to 75% and < 25%, respectively.

`O[C@@H](CNC[C@H]1CC[C@@H](O)CC1)c1cncc(F)c1` [Compound 269, (R)-1-(5-fluoro-3-pyridyl)-2-({[(1s,4S)-4-hydroxycyclohexyl]meth-yl}amno)-1-ethanol]: the Emax at 10 µM in assay [1] is 25 to 50%; in assay [2] it was < 25%.

For `CCCCNCC(O)c1cc(F)c(N)c(F)c1` (stereo not drawn) [Compound 37, 1-(4-amino-3,5-difluorophenyl)-2-(butylamino)-1-ethanol], the Emax at 10 µM in assay [1] and in assay [2] was > 75% in each case.

Consider `COc1ccc(C[C@@]2(C)CC[C@H]([C@H](O)c3cccc(F)c3)N2)cc1` [Compound 366, (R)-{(2R,5R)-5-[(p-methoxyphenyl)methyl]-5-methyl-2-pyrrolidinyl}(m-fluorophenyl)methanol], for which the results for the Emax at 10 µM in assay [1] and in assay [2] were > 75% and 25 to 50%, respectively.

Turning to `O[C@@H](c1cccc(F)c1)C12CCC(COc3ccc(Cl)cc3)(CC1)N2` [Compound 440, (S)-{4-[(p-chlorophenoxy)methyl]-7-azabicyclo[2.2.1]hept-1-yl}(m-fluorophenyl)methanol], the Emax at 10 µM in assay [1] was > 75%; in assay [2] it was < 25%.

Regarding `CCC[C@@H]1CCC[C@@H]([C@@H](O)c2cccc(O)c2)N1` [Compound 113, (S)-[(2S,6R)-6-propyl-2-piperidyl](m-hydroxyphenyl)methanol], the Emax at 10 µM in assay [1] is 50 to 75%; in assay [2], < 25%.

For the molecule `O[C@@H](c1cccc(F)c1)C12CCC(COCc3ccc(OC(F)(F)F)cc3)(CC1)N2` [Compound 487, (S)-(m-fluorophenyl)(4-{[(p-trifluoromethoxyphenyl)methoxy]methyl}-7-azabicylco[2.2.1]hept-1-yl)methanol], the Emax at 10 µM in assay [1] and in assay [2] was < 25% throughout.

For the molecule `CO[C@H]1CC[C@@H](CCC(C)(C)NC[C@H](O)c2cccc(F)c2)CC1` [Compound 264, (R)-2-{1,1-dimethyl-3-[(1s,R)-4-methoxycyclohexyl]propyl-amino}-1-(m-fluorophenyl)-1-ethanol], the results for the Emax at 10 µM in assay [1] and in assay [2] were > 75% and 25 to 50%, respectively.

In the case of `CC(C)(NC[C@H](O)c1cncc(F)c1)[C@H]1CC[C@@H](C(=O)O)CC1` [Compound 323, (1S,4s)-8-[(R)-2-(5-fluoro-3-pyridyl)-2-hydroxyethylamino]-7-hydroxy-p-menthan-7-one], the values for the Emax at 10 µM in assay [1] and in assay [2] were 25 to 50% and 50 to 75%, respectively.

Turning to `CC(C)(C[C@H]1CC[C@H](C(=O)O)CC1)NC[C@H](O)c1cccc(F)c1` [Compound 355, (1R,4r)-4-{2-[(R)-2-(m-fluorophenyl)-2-hydroxyethylamino]-2-methylpropyl}cyclohexanecarboxylic acid], the Emax at 10 µM in assay [1] was 50 to 75%; in assay [2], < 25%.

As to `O[C@@H](c1cncc(F)c1)C12CCC(COCc3ccc(F)cc3)(CC1)N2` [Compound 442, (S)-(4-{[(p-fluorophenyl)methoxy]methyl}-7-azabicyclo[2.2.1]hept-1-yl)(5-fluoro-3-pyridyl)methanol], the Emax at 10 µM in assay [1] is 25 to 50%; in assay [2], < 25%.

With `CC(=O)N[C@H]1CC[C@@H](CC(C)(C)NC[C@H](O)c2cccc(F)c2)CC1` [Compound 452, N-[(1S,4s)-4-{2-[(R)-2-(m-fluorophenyl)-2-hydroxyethylamino]-2-methylpropyl}cyclohexyl]acetamide], the results for the Emax at 10 µM in assay [1] and in assay [2] were > 75% and < 25%, respectively.

Regarding `O[C@@H](CNC[C@H]1CC[C@@H](OCc2ccccc2)CC1)c1cccc(F)c1` [Compound 262, (R)-1-(m-fluorophenyl)-2-({[(1s,4S)-4-(benzyloxy)cyclohexyl]methyl}amino)-1-ethanol], the values for the Emax at 10 µM in assay [1] and in assay [2] were 25 to 50% and < 25%, respectively.

With `COC(=O)[C@H]1CC[C@@H](CC(C)(C)NC[C@H](O)c2cccc(F)c2)CC1` [Compound 327, methyl (1S,4s)-4-{2-[(R)-2-(m-fluorophenyl)-2-hydroxyethylamino]-2-methylpropyl}cyclohexanecarboxylate], the Emax at 10 µM in assay [1] was > 75%; in assay [2] it was < 25%.

For `O[C@@H](CNCC[C@H]1CC[C@H](O)CC1)c1cccc(F)c1` [Compound 298, (R)-1-(m-fluorophenyl)-2-{2-[(1r,4R)-4-hydroxycyclohexyl]ethylamino}-1-ethanol], the Emax at 10 µM in assay [1] was 25 to 50%; in assay [2], < 25%.

`CCCCNCC(O)c1cccc(Cl)c1` (stereo not drawn) [Compound 2, 2-(butylamino)-1-(m-chlorophenyl)-1-ethanol]: the Emax at 10 µM is 25 to 50% in assay [1] and < 25% in assay [2].

Take `CC(=O)N[C@H]1CC[C@H](C[C@@H]2CC[C@H]([C@@H](O)c3cccc(F)c3)N2)CC1` [Compound 486, N-[(1S,4r)-4-({(2S,5R)-5-[(S)-(m-fluorophenyl)hydroxymethyl]-2-pyrrolidinyl}methyl)cyclohexyl]acetamide]: the Emax at 10 µM in assay [1] is 50 to 75%; in assay [2], < 25%.

`CC(C)(CC[C@H]1CC[C@@H](O)CC1)NC[C@H](O)c1cccc(F)c1` [Compound 295, (R)-2-{1,1-dimethyl-3-[(1s,4R)-4-hydroxycyclohexyl]propylamino}-1-(m-fluorophenyl)-1-ethanol]: the results for the Emax at 10 µM in assay [1] and in assay [2] were > 75% and < 25%, respectively.

For `CCCC(C)NCC(O)c1cc(Cl)c(N)c(Cl)c1` (stereo not drawn) [Compound 22, 1-(4-amino-3,5-dichlorophenyl)-2-(1-methylbutylamino)-1-ethanol], the Emax at 10 µM was > 75% in assay [1] and 50 to 75% in assay [2].

(Values after patent US20260256751A1, “COMBINATION OF BETA-2-ADRENERGIC RECEPTOR AGONISTS AND GLP-1 RECEPTOR AGONISTS FOR USE IN TREATING HYPERGLYCAEMIA” (ATROGI AB, priority 2023, published 2026).)
